The values below come from patent US20210085711A1 (Japan Tobacco Inc., priority 2017, published 2021).

The series concerns patients with hypermenorrhea-associated gynecologic diseases. In words: Phase II clinical trial of JTT-751: safety evaluation (harmful events) in combined use with medicaments affecting the amount of menstrual bleeding. The note with it: combined with carbazochrome sodium sulfonate, transamin or ethynylestradiol combinations. Type of series: in vivo, human. As for the experimental part: This test was a three-stage safety and efficacy clinical trial at multi-facilities. The first stage was a pre-observation period (Day −40 to Day −1), the second stage was an administration period (Day 1 to Day 48) (efficacy and safety evaluation period), and the third stage was a post-observation period (Day 49 to Day 63) (efficacy and safety evaluation period). The safety evaluation and efficacy evaluation were performed by multi-facility collaboration, placebo control, random allocation, double-blind trial, and parallel group comparison test. […]
(1) Regarding the subjective symptoms and objective findings, when “expression of new abnormality” was observed between the start of the trial drug administration and nine weeks after Week 0 or at the end of examination after discontinuation as compared to before the start of the trial drug administration. […] (3) Regarding clinical examination, vital sign and standard 12-induced electrocardiogram, when the principal investigator or subinvestigator determined that an abnormality newly recognized between the start of the trial drug administration and nine weeks after Week 0 or at the end of examination after discontinuation, or aggravation of abnormality observed from before the start of the trial drug administration was a clinical problem. […]

On to Ferric citrate [JTT-751], for which the “harmful event caused by combined use with medicaments affecting the amount of menstrual bleeding” value is recorded as “no harmful event caused by the combined use was reported”.
